One experiment has as its system SARS-CoV-2 Alpha variant. The following applies: 18 h.
In another experiment the test system is SARS-CoV-2 Delta variant. Conditions: 18 h.
Experiment [1] concerns SARS-CoV-2 (B.1.1.63, D614G). It is filed as cell-based.
Another experiment relates to SARS-CoV-2 Beta variant. The following applies: 18 h.
The test system of experiment [2] is Omicron variant (B.1.1.529). Briefly: Post-exposure antiviral assay in hamsters, Omicron. The class given is in vivo.

Experimental findings from article PMC9243000 (Cell Discovery, 2022) are described below.

Positions of bridges follow the written chain, without caps; N, C: chain ends. Chains are numbered I, II in the order given. No end group written: not given here.

For the substance “I: GAICHPVFCPRRYKQIGTCGLPGTKCCKKPKK / II: GAICHPVFCPRRYKQIGTCGLPGTKCCKKPK / III: GAICHPVFCPRRYKQIGTCGLPGTKCCKKP / IV: GAICHPVFCPRRYKQIGTCGLPGTKCCKKP (amide I:31-IV:C, I:32-II:C, II:31-III:C; cysteines drawn unpaired) [4H30]”, the IC50 in the experiment on SARS-CoV-2 Alpha variant stood at 0.75 µg/mL; in the experiment on SARS-CoV-2 Delta variant, 0.79 µg/mL; in the experiment with SARS-CoV-2 Beta variant, 0.89 µg/mL. Further, in experiment [1], the “inhibition of SARS-CoV-2 replication when added at 6 hpi” value was “significantly inhibit”. In addition, the “Omicron variant titers in the nasal wash” value in experiment [2] ([…], plaque assay, n = 4) is “significantly reduce”. Moreover, in experiment [2] (hamster, in vivo), the “inhibition of Omicron replication in hamster lungs” value is reported as “more than 20 fold”.
